Data from publication PMC8595397, “Reproductive Regulation of PrRPs in Teleost: The Link Between Feeding and Reproduction” (Frontiers in Endocrinology, 2021).
Like-named read-outs stand apart in the source and are kept apart here. Ends that are not written are not given here.

Tests used:
[1] = system: GtHα mRNA in grass carp pituitary cells; experiment: Signal transduction: GtHα mRNA expression with inhibitors in pituitary cells; format: cell-based
[2] = system: grass carp pituitary cells; experiment: Signal transduction: LH release with inhibitors in pituitary cells; format: cell-based
[3] = system: LHβ mRNA in grass carp pituitary cells; experiment: Signal transduction: LHβ mRNA expression with inhibitors in pituitary cells; format: cell-based
[4] = system: PrRP-Rs mRNA in grass carp brain cells; experiment: PrRP-Rs mRNA expression in primary brain cells; format: cell-based; conditions: E2 1 μM, 24 h
Procedure: (§1) In brief, 13-14 grass carp brains were obtained and separated into the required brain areas including telencephalon, hypothalamus, and optic tectum, which were cut into 0.8 mm tissue fragments using […] tissue chopper (Cavey laboratory). After washing with Minimum Essential Medium (MEM, Gibco) three times, the brain fragments were incubated with 6 mg/ml trypsin (Sigma) dissolved in the medium under the conditions of 28°C, 48 rpm for 30 min. […] The brain fragments were filtered using a 30 μm filter screen and cultured into a 24-well cell culture plate under 28°C, 5% CO2 concentration. […] After another 2 days of incubation, a single-dose E2 treatment (1 μM) was performed on the cells. […] The β-actin mRNA was used as an internal parameter to eliminate random error. Therefore, genes mRNA data as well as LH release data were easily converted as a percentage of the mean value (as “% Ctrl”). The data presented (as Mean ± SEM) collected results from 4-8 parallel group experiments and analyzed with ANOVA.

[5] = system: prepubertal zebrafish; parameters: method as in PMID 22689988; conditions: cited from earlier work
[6] = system: PrRPs, GnRH2 and GnRH3 mRNA in grass carp brain cells; experiment: PrRPs and GnRH mRNA expression in primary brain cells; format: cell-based; conditions: E2 1 μM, 24 h
Procedure: as §1

[7] = target: T1, hPrRPR (Homo sapiens, UniProt P49683); experiment: NFAT-luc reporter assay, functional expression of hPrRPR in HEK-293T cells; format: cell-based
T1 construct: the full-length open reading frame (ORF) of human PrRP receptor (hPrRPR); expressed in transfected cells; host or cells: HEK-293T
T1 sequence (P49683 1-370): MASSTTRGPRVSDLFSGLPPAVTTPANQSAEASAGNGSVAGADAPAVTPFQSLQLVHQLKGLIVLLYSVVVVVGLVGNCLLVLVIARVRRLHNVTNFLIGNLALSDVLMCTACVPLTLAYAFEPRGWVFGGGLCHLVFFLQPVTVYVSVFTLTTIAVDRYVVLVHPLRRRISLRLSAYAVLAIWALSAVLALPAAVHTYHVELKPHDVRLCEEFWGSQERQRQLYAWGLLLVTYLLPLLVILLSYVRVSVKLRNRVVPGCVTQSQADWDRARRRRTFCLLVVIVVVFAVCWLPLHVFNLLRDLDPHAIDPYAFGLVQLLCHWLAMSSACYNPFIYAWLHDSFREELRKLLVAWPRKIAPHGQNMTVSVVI

[8] = target: T2, PrRP-R2a (Ctenopharyngodon idella, UniProt A0A4V1HW94); experiment: cell-based; parameters: species or system grass carp (Ctenopharyngodon idellus)
T2 sequence (A0A4V1HW94 1-370): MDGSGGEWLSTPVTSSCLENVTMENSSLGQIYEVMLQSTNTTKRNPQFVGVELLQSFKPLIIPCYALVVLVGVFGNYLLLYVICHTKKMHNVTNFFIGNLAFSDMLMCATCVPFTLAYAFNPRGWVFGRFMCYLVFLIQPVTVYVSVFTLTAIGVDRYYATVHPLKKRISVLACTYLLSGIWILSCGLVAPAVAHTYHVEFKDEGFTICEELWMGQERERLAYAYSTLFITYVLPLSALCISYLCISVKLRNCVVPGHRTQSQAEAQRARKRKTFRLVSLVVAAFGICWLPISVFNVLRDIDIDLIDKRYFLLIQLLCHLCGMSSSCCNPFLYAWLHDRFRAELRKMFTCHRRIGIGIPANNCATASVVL

[9] = target: T3, PrRP-R1a (Ctenopharyngodon idella, UniProt A0A4P9NKE7); experiment: cell-based; parameters: species or system grass carp (Ctenopharyngodon idellus)
T3 sequence (A0A4P9NKE7 1-371): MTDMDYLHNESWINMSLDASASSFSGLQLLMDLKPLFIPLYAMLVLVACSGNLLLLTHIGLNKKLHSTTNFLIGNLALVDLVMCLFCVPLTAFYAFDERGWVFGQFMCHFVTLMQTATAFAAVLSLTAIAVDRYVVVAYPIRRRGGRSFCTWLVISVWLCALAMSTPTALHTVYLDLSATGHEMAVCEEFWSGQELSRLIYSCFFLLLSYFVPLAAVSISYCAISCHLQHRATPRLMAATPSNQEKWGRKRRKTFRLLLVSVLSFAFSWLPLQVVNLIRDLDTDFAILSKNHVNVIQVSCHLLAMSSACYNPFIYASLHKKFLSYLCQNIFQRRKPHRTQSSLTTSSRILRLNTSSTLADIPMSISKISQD

[10] = target: T4, PrRP-R1b (Ctenopharyngodon idella, UniProt A0A4P9NKE2); experiment: cell-based; parameters: species or system grass carp (Ctenopharyngodon idellus)
T4 sequence (A0A4P9NKE2 1-377): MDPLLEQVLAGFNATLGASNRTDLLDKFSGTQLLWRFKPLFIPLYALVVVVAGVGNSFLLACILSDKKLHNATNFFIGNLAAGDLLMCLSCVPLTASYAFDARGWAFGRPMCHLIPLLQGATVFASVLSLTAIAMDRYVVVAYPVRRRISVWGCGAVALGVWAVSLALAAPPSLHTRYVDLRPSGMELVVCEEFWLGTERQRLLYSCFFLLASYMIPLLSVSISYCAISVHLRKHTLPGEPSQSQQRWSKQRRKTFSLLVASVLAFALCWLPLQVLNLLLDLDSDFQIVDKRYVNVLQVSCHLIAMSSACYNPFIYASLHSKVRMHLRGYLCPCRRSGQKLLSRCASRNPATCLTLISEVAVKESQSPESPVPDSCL

[11] = sheet prrp1, block PKA, PrRP1 1 μM, MDL12330A 20 μM, H89 20 μM, 24 h, mean
[12] = sheet prrp2, block r2-8, PrRP2 1 μM, MDL12330A 20 μM, H89 20 μM, 24 h, mean
[13] = PrRP1 or PrRP2 1 μM, MDL12330A 20 μM, H89 20 μM, U73122 10 μM, GF109203X 20 μM, 2-APB 100 μM, nifedipine 10 μM, calmidazolium 1 μM, KN62 5 μM
[14] = sheet prrp1, block r21-32, PrRP1 1 μM, U73122 10 μM, 2-APB 100 μM, KN62 5 μM, nifedipine 10 μM, calmidazolium 1 μM, 24 h, mean
[15] = sheet prrp2, block r25-30, PrRP2 1 μM, CMZ 1 μM, KN62 5 μM, 24 h, mean
[16] = sheet prrp1, block Nifedipine, CMZ, KN62 (r33-40), PrRP1 1 μM, nifedipine 10 μM, calmidazolium 1 μM, KN62 5 μM, 24 h, mean
[17] = sheet prrp1, block r21-30, PrRP1 1 μM, U73122 10 μM, 2-APB 100 μM, KN62 5 μM, nifedipine 10 μM, 24 h, mean
[18] = sheet prrp2, block r27-32, PrRP2 1 μM, CMZ 1 μM, KN62 5 μM, 24 h, mean
[19] = sheet prrp1, block PKC (r14-19), PrRP1 1 μM, U73122 10 μM, GF109203X 20 μM, 24 h, mean
[20] = sheet prrp2, block r10-15, PrRP2 1 μM, U73122 10 μM, GF109203X 20 μM, 24 h, mean
[21] = HEK-293T, NFAT-luc reporter, 24 h, 37°C, GraphPad Prism 7, read-out: EC50, hPrRPR

NCCOB(c1ccccc1)c1ccccc1 [2-APB]
GtHα mRNA expression [1]: 30.7224 % Ctrl
effect on PrRPs-induced LH secretion and mRNA expression (in words) [2]: could also block PrRPs-induced LH secretion and mRNA expression
LHβ mRNA expression [3]: 7.49 % Ctrl

C[C@]12CC[C@@H]3c4ccc(O)cc4CC[C@H]3[C@@H]1CC[C@@H]2O [E2, seventeen β-estradiol]
four PrRP-Rs mRNA expression (in words) [4]: significantly induced
prrp1a mRNA expression (CTR = 1) ([4]; mean): 2.26
prrp1b mRNA expression (CTR = 1) ([4]; mean): 2.14
prrp2a mRNA expression (CTR = 1) ([4]; mean): 1.37
prrp2b mRNA expression (CTR = 1) ([4]; mean): 2.25
expression of key genes involved in reproduction (GnRH3, Kiss2, and Tac3) (in words) [5]: enhanced the expression of the key genes involved in reproduction
GnRH3 mRNA expression (in words) [6]: significantly induce
PrRP1 mRNA expression (in words) [6]: significantly induce
gnrh3 mRNA expression (CTR = 1) ([6]; mean): 2.33
prrp1 mRNA expression (CTR = 1) ([6]; mean): 1.32

CN(C)CCCn1cc(C2=C(c3c[nH]c4ccccc34)C(=O)NC2=O)c2ccccc21 [GF109203X]
GtHα mRNA expression [1]: 66.101 % Ctrl
effect on PrRPs-induced LH secretion and mRNA expression (in words) [2]: could also block PrRPs-induced LH secretion and mRNA expression
LHβ mRNA expression [3]: 101.639 % Ctrl

O=S(=O)(NCCNC/C=C/c1ccc(Br)cc1)c1cccc2cnccc12 [H89]
GtHα mRNA expression [1, 11]: 38.3512 % Ctrl
GtHα mRNA expression [1, 12]: 38.3512 % Ctrl
effect on PrRPs-induced LH secretion and mRNA expression (in words) [2, 13]: could be blocked by co-treatment
LHβ mRNA expression [3, 11]: 92.1677 % Ctrl
LHβ mRNA expression [3, 12]: 65.1638 % Ctrl

CN([C@@H](Cc1ccc(OS(=O)(=O)c2cccc3cnccc23)cc1)C(=O)N1CCN(c2ccccc2)CC1)S(=O)(=O)c1cccc2cnccc12 [KN62]
GtHα mRNA expression [1, 14]: 119.519 % Ctrl
GtHα mRNA expression [1, 15]: 119.519 % Ctrl
effect on PrRPs-induced LH secretion and mRNA expression (in words) [2, 13]: could also block PrRPs-induced LH secretion and mRNA expression
LHβ mRNA expression [3, 16]: 112.35 % Ctrl
LHβ mRNA expression [3, 17]: 112.35 % Ctrl
LHβ mRNA expression [3, 18]: 112.35 % Ctrl

Cl.c1ccc(C2CCCC2NC2=NCCCCCCCCCCC2)cc1 (centres unmarked) [MDL12330A]
GtHα mRNA expression [1, 11]: 33.647 % Ctrl
GtHα mRNA expression [1, 12]: 33.647 % Ctrl
effect on PrRPs-induced LH secretion and mRNA expression (in words) [2, 13]: could be blocked by co-treatment
LHβ mRNA expression [3, 11]: 19.5731 % Ctrl
LHβ mRNA expression [3, 12]: 52.4857 % Ctrl

COc1ccc2c(c1)CC[C@@H]1[C@@H]2CC[C@]2(C)[C@@H](NCCCCCCN3C(=O)C=CC3=O)CC[C@@H]12 [U73122]
GtHα mRNA expression [1, 19]: 19.2973 % Ctrl
GtHα mRNA expression [1, 14]: 19.2973 % Ctrl
GtHα mRNA expression [1, 20]: 19.2973 % Ctrl
effect on PrRPs-induced LH secretion and mRNA expression (in words) [2, 13]: could also block PrRPs-induced LH secretion and mRNA expression
LHβ mRNA expression [3, 19]: 16.4413 % Ctrl
LHβ mRNA expression [3, 17]: 16.4413 % Ctrl
LHβ mRNA expression [3, 20]: 16.4413 % Ctrl

Clc1ccc(C(c2ccc(Cl)cc2)n2cc[n+](CC(OCc3ccc(Cl)cc3Cl)c3ccc(Cl)cc3Cl)c2)cc1 (centres unmarked) [calmidazolium]
GtHα mRNA expression [1, 14]: 36.6785 % Ctrl
GtHα mRNA expression [1, 15]: 48.844 % Ctrl
effect on PrRPs-induced LH secretion and mRNA expression (in words) [2, 13]: could also block PrRPs-induced LH secretion and mRNA expression
LHβ mRNA expression [3, 16]: 13.098 % Ctrl
LHβ mRNA expression [3, 18]: 13.098 % Ctrl

COC(=O)C1=C(C)NC(C)=C(C(=O)OC)C1c1ccccc1[N+](=O)[O-] [nifedipine]
GtHα mRNA expression [1, 14]: 77.477 % Ctrl
GtHα mRNA expression ([1]; sheet prrp2, block r17-22, PrRP2 1 μM, 2-APB 100 μM, nifedipine 10 μM, 24 h, mean): 72.5728 % Ctrl
effect on PrRPs-induced LH secretion and mRNA expression (in words) [2, 13]: could also block PrRPs-induced LH secretion and mRNA expression
LHβ mRNA expression [3, 16]: 48.7223 % Ctrl
LHβ mRNA expression [3, 17]: 48.7223 % Ctrl
LHβ mRNA expression ([3]; sheet prrp2, block r18-23, PrRP2 1 μM, 2-APB 100 μM, nifedipine 10 μM, 24 h, mean): 48.7223 % Ctrl

DPNIDAVWYKGRGIRPVGRF-NH2 [PrRP2]
EC50 [7, 21]: 52.4 nM
EC50 [8]: 78.9 nM
EC50 [9]: 3160 nM
EC50 [10]: 615 nM

SPEIDPFWYVGRGVRPIGRF-NH2 [PrRP1]
EC50 [7]: 182 nM
EC50 [8]: 720 nM
EC50 [9]: 85.3 nM
EC50 [10]: 192 nM

TPDINPAWYASRGIRPVGRF-NH2 [hPrRP]
EC50 [7, 21]: 191 nM
EC50 [8]: 940 nM
EC50 [9]: 1110 nM
EC50 [10]: 2180 nM
